Values of other authors, collected in patent US10172867B2, “Afobazole nanoparticles formulation for enhanced therapeutics” (University of South Florida, priority 2014, dated 2019).

Columns and labels:
in vitro ischemia model = conditions: Cuevas et al.
σ-1 receptor = conditions: Cuevas et al., 2011
σ-2 receptor = σ-2 receptor (Homo sapiens, UniProt Q5BJF2); conditions: Cuevas et al., 2011
muscarinic receptors = conditions: Seredenin et al., 2009
[1] = in vivo

Sequence of σ-2 receptor (Q5BJF2 whole entry, species assumed): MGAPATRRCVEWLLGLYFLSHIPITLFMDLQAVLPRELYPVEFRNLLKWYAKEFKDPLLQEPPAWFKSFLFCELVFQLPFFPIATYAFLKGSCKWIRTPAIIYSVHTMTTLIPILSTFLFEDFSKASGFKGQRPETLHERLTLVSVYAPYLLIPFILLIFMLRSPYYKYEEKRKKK

CCOc1ccc2nc(SCCN3CCOCC3)[nH]c2c1 [Afobazole, 5-ethoxy-2[2-(morpholine)-ethylthio]benzimidazole]
neuroprotection (in vitro ischemia model; in vitro ischemia model, 2011): provides neuroprotection | ischemia-induced Ca2+ overload (in vitro ischemia model; via activation of σ-1 receptors, Katnik et al., 2006, 2011a): decrease in ischemia-induced Ca^2+ overload | σ-1 receptor activity (σ-1 receptor): agonist | σ-2 receptor activity (σ-2 receptor): agonist | interaction with muscarinic receptors (muscarinic receptors): does not interact | brain penetration [1]: limited brain penetration | half-life [1]: short half-life
